Test results: publication PMC9781087, “Discovery of New Microbial Collagenase Inhibitors” (Life, 2022)
Where two headings read alike, the source gives them in different places.

Assays:
[1] = biological target: collagenase from Clostridium histolyticum; design: method as in PMID 16276971; conditions: cited from earlier work
[2] = tested on: rats intratendineously injected with collagenase; design: method as in PMID 28165813; conditions: intragastrical administration, 100 mg/kg; cited from earlier work
collagenase A (ColA) = collagenase A (ColA) (Clostridium perfringens, UniProt P43153); experiment: biochemical; design: species or system C. perfringens; conditions: for Inhibition (%) on ColA: after 30 min of incubation
Solubility = conditions: in words
[3] = tested on: neuraminidase protein of Clostridium perfringens; conditions: cited from earlier work
mice = tested on: mice; design: method as in PMID 34684834; conditions: acute toxicity; cited from earlier work
[4] = tested on: Staphylococcus aureus, Enterococcus faecalis, and Staphylococcus epidermidis; design: method as in PMID 31486108; conditions: cited from earlier work
[5] = read-out: Inhibition (%) on ColA
[6] = read-out: Inhibition(%) on ColA
[7] = 50 µM, mean ± SD of three replications
[8] = 100 µM, preliminary screening (Table S1), * = compound precipitated due to low solubility

Sequence of collagenase A (ColA) (P43153 87-1104 limits assumed): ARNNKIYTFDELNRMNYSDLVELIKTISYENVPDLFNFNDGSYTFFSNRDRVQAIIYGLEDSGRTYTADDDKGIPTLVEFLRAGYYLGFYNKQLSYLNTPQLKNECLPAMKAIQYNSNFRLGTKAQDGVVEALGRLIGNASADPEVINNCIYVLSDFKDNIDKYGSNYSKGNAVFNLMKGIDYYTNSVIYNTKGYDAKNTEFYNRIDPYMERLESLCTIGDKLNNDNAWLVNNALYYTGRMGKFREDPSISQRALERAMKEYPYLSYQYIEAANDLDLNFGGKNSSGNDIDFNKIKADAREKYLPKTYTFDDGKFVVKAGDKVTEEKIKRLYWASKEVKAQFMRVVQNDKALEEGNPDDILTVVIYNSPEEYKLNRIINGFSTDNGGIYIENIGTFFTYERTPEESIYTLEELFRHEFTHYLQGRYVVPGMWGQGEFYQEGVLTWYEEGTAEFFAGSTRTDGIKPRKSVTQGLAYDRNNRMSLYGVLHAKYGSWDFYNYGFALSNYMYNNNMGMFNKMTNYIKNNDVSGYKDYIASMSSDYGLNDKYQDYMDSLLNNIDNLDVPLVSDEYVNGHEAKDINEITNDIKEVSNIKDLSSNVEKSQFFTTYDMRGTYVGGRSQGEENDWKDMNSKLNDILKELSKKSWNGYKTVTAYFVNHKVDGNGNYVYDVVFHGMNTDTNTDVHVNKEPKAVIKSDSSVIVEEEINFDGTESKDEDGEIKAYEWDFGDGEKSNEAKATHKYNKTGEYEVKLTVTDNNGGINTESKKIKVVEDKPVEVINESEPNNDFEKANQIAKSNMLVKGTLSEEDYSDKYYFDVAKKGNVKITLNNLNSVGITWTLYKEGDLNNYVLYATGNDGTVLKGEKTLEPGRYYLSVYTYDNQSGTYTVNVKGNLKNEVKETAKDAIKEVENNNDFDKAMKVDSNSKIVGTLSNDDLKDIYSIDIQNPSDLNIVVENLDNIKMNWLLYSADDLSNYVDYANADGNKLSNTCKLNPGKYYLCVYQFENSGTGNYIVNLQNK

O=c1c(O)c(-c2ccc(O)c(O)c2)oc2cc(O)cc(O)c12 [quercetin]
IC50 [1]: 286 µM

O=C(/C=C/C=C/c1ccc2c(c1)OCO2)N1CCCCC1 [Piperine, piperine]
morphological structure of rats' tendons [2]: improvement of the morphological structure | IC50 (in words) (collagenase A (ColA)): nanomolar range | inhibitory effect on ColA (in words) (collagenase A (ColA)): potent inhibitory effects on ColA, even at small concentration | inhibition at 1 µM (collagenase A (ColA); [5]): 84.5 ± 0.4% | inhibition at 5 µM (collagenase A (ColA); [5]): 82.4 ± 0.4% | inhibition at 10 µM (collagenase A (ColA); [5]): 72.5 ± 2.7% | inhibition at 100 µM (collagenase A (ColA); [6]): 81.1% | solubility (Solubility): low solubility

COc1cc2c(cc1OC)-c1cc3ccc(OC)c(OC)c3c[n+]1CC2 [Palmatine chloride, palmatine chloride]
neuraminidase inhibition (in words) [3]: potent effect | Inhibition (%) on ColA (collagenase A (ColA); [7]): Almost complete inhibition | inhibition at 1 µM (collagenase A (ColA); [5]): 15.5 ± 3.9% | inhibition at 5 µM (collagenase A (ColA); [5]): 35.4 ± 1.8% | inhibition at 10 µM (collagenase A (ColA); [5]): 84.9 ± 1.5% | inhibition at 50 µM (collagenase A (ColA); [5]): 97.9 ± 1.6% | inhibition at 100 µM (collagenase A (ColA); [5]): 98.7 ± 0.4% | inhibition at 100 µM (collagenase A (ColA); [6]): 103% | lethal dose 50 (mice): 1533.68 mg/kg

O=C1c2ccc(O)cc2OC(c2cc(O)c(O)c(O)c2)C1O (stereo not shown) [Dihydrorobinetin, dihydrorobinetin]
Inhibition (%) on ColA (collagenase A (ColA); 10 µM, mean ± SD of three replications): Almost complete inhibition | inhibition at 1 µM (collagenase A (ColA); [5]): -16.5 ± 1.6% | inhibition at 5 µM (collagenase A (ColA); [5]): -29.7 ± 0.5% | inhibition at 10 µM (collagenase A (ColA); [5]): 105.1 ± 0.5% | inhibition at 100 µM (collagenase A (ColA); [6]): 96.9% | solubility (Solubility): poor solubility in water

CC1CNc2c(cccc2S(=O)(=O)N[C@@H](CCCNC(=N)N)C(=O)N2CC[C@@H](C)C[C@@H]2C(=O)O)C1 (stereo partly shown) [argatroban, reference compound]
inhibition at 100 µM (collagenase A (ColA); [6]): -12.3%

O=c1c(O)c(-c2cc(O)c(O)c(O)c2)oc2cc(O)cc(O)c12 [Myricetin, myricetin]
inhibitory effect on ColA (in words) (collagenase A (ColA)): low inhibitory effect | inhibition at 1 µM (collagenase A (ColA); [5]): -15.4 ± 2.7% | inhibition at 5 µM (collagenase A (ColA); [5]): -4.5 ± 1.1% | inhibition at 10 µM (collagenase A (ColA); [5]): -1 ± 1.1% | inhibition at 50 µM (collagenase A (ColA); [5]): 13.6 ± 0.6% | inhibition at 100 µM (collagenase A (ColA); [5]): 23.2 ± 2% | inhibition at 100 µM (collagenase A (ColA); [6]): 27.6%

Cc1ccc(S(=O)(=O)N[C@@H](CCCNC(=N)N)C(=O)O)cc1 [nalpha-p-toluenesulfonyl-L-arginine]
Inhibition (%) on ColA (collagenase A (ColA); [8]): 24.8%

O=c1ccc2cc(O)c(O)cc2o1 [esculetin]
inhibitory effect on ColA (in words) (collagenase A (ColA)): low effects | inhibition at 100 µM (collagenase A (ColA); [6]): 11.8%

O=c1c(-c2ccc(O)cc2)coc2cc(O)ccc12 [daidzein]
inhibition at 100 µM (collagenase A (ColA); [6]): 5.8%

CC(=O)c1ccc(S(=O)(=O)NC(=O)NC2CCCCC2)cc1 [acetohexamide, reference compound]
inhibition at 100 µM (collagenase A (ColA); [6]): 16.6%

COc1cc([C@@H]2c3cc4c(cc3[C@H](O)[C@H]3COC(=O)[C@H]23)OCO4)cc(OC)c1OC [podophyllotoxin, reference compound]
inhibition at 100 µM (collagenase A (ColA); [6]): -9.7%

O=C(O)c1cc(O)c2c(c1)C(=O)c1cccc(O)c1C2=O [Rhein, rhein]
inhibitory effect on ColA (in words) (collagenase A (ColA)): potent inhibitors of ColA | inhibition at 1 µM (collagenase A (ColA); [5]): 2.6 ± 0.6% | inhibition at 5 µM (collagenase A (ColA); [5]): 22.9 ± 2.7% | inhibition at 10 µM (collagenase A (ColA); [5]): 37.4 ± 3.2% | inhibition at 50 µM (collagenase A (ColA); [5]): 77.3 ± 2.2% | inhibition at 100 µM (collagenase A (ColA); [5]): 80.6 ± 1% | inhibition at 100 µM (collagenase A (ColA); [6]): 78.5%

COc1ccc2cc3[n+](cc2c1OC)CCc1cc2c(cc1-3)OCO2 [berberine]
inhibition at 100 µM (collagenase A (ColA); [6]): -2.5%

O=c1cc(-c2ccccc2)oc2cccc(O)c12 [Primuletin, primuletin]
inhibitory effect on ColA (in words) (collagenase A (ColA)): low impact on the enzyme activity | inhibition at 1 µM (collagenase A (ColA); [5]): -9.3 ± 1.7% | inhibition at 5 µM (collagenase A (ColA); [5]): -8.8 ± 2.1% | inhibition at 10 µM (collagenase A (ColA); [5]): -0.7 ± 1.3% | inhibition at 50 µM (collagenase A (ColA); [5]): 8.5 ± 2.1% | inhibition at 100 µM (collagenase A (ColA); [5]): 25.4 ± 1.8% | inhibition at 100 µM (collagenase A (ColA); [6]): 33.1%

Cc1cc(O)c2c(c1)C(=O)c1cccc(O)c1C2=O [chrysophanol]
inhibition at 100 µM (collagenase A (ColA); [6]): -11.1%

O=C(O)C1NCCc2c1[nH]c1ccccc21 (stereo not drawn) [1,2,3,4-tetrahydro-beta-carboline-1-carboxylic acid]
inhibition at 100 µM (collagenase A (ColA); [6]): 1.5%

O=c1cc(-c2ccc(O)cc2)oc2cc(O)cc(O)c12 [apigenin]
inhibition at 100 µM (collagenase A (ColA); [6]): 2.7%

C[C@@H]1O[C@@H](OC[C@H]2O[C@@H](Oc3c(-c4ccc(OCCO)c(OCCO)c4)oc4cc(OCCO)cc(O)c4c3=O)[C@H](O)[C@@H](O)[C@@H]2O)[C@H](O)[C@H](O)[C@H]1O [trihydroxyethylrutin, reference compound]
Inhibition (%) on ColA (collagenase A (ColA); [8]): 1.3%

O=C(O)C1CCCN1S(=O)(=O)c1cccc(C(F)(F)F)c1 (stereo not shown) [1-{[3-(trifluoromethyl)phenyl]sulfonyl}-2-pyrrolidinecarboxylic acid]
inhibition at 100 µM (collagenase A (ColA); [6]): 0.7%

O=C(O)[C@@H](S)[C@@H](S)C(=O)O [meso-2,3-dimercaptosuccinic acid, reference compound]
inhibition at 100 µM (collagenase A (ColA); [6]): 25.6%

COc1ccc(-c2coc3cc(O)cc(O)c3c2=O)cc1 [Biochanin A, biochanin A]
inhibitory effect on ColA (in words) (collagenase A (ColA)): potent inhibitory effect | Inhibition (%) on ColA (collagenase A (ColA); [7]): Almost complete inhibition | inhibition at 1 µM (collagenase A (ColA); [5]): -24.8 ± 5.3% | inhibition at 5 µM (collagenase A (ColA); [5]): 23 ± 2.6% | inhibition at 10 µM (collagenase A (ColA); [5]): 34.1 ± 2.2% | inhibition at 50 µM (collagenase A (ColA); [5]): 99.1 ± 1% | inhibition at 100 µM (collagenase A (ColA); [5]): 76.1 ± 0.7% | inhibition at 100 µM (collagenase A (ColA); [6]): 57.9%

O=C(O)C=Cc1cccc(O)c1 [3-hydroxycinnamic acid]
inhibition at 100 µM (collagenase A (ColA); [6]): 0.8%

Oc1cc(O)c2c(c1)O[C@H](c1ccc(O)c(O)c1)[C@H](O)C2 [epicatechin]
inhibition at 100 µM (collagenase A (ColA); [6]): 3.6%

CC(=O)N[C@@H](CS)C(=O)O [acetylcysteine, reference compound]
inhibition at 100 µM (collagenase A (ColA); [6]): 3.4%

O=C(O)[C@H]1/C(=C/CO)O[C@@H]2CC(=O)N21 [potassium clavulanate, reference compound]
inhibition at 100 µM (collagenase A (ColA); [6]): -8.1%

C/C(=C(\CCOP(=O)(O)O)SC(=O)c1ccccc1)N(C=O)Cc1cnc(C)nc1N [benfotiamine, reference compound]
inhibition at 100 µM (collagenase A (ColA); [6]): -20.4%

O=C1C=CC(=O)c2c(O)cccc21 [Juglone, juglone]
inhibitory effect on ColA (in words) (collagenase A (ColA)): potent inhibitors of ColA | Inhibition (%) on ColA (collagenase A (ColA); 100 µM, mean ± SD of three replications (five-dose assay)): Almost complete inhibition | inhibition at 1 µM (collagenase A (ColA); [5]): 13.8 ± 1.5% | inhibition at 5 µM (collagenase A (ColA); [5]): 50.6 ± 0.5% | inhibition at 10 µM (collagenase A (ColA); [5]): 69.2 ± 0.4% | inhibition at 50 µM (collagenase A (ColA); [5]): 80.8 ± 0.7% | impact on the bacterial growth [4]: low impact on the bacterial growth

CC1=CC(=O)c2c(O)cccc2C1=O [plumbagin]
inhibition at 100 µM (collagenase A (ColA); [6]): -7.7%

Cl.NCCS [cysteamine hydrochloride, reference compound]
Inhibition (%) on ColA (collagenase A (ColA); [8]): 2.8%

c1ccc2c3c([nH]c2c1)CNCC3 [tetrahydronorharman]
Inhibition (%) on ColA (collagenase A (ColA); [8]): 21.3%
